Source: the NIST ThermoML archive (doi:10.1016/j.jct.2012.12.001)

Assay: heat capacity at constant pressure per volume; xn = mol fraction of the nth substance listed
Details: 101 kPa, Liquid, DSC, x2 = 0.713

CCCCCCCCCCCCCCCCCC [octadecane] + N#Cc1ccccc1
Details	heat capacity [J/K/m3]
315.57 K	1733800
315.76 K	1733400
315.95 K	1733200
316.14 K	1733100
316.33 K	1732700
316.52 K	1732000
316.71 K	1731600
316.9 K	1731300
317.09 K	1731000
317.28 K	1730800
317.47 K	1730300
317.66 K	1730100
317.85 K	1730000
318.03 K	1729900
318.22 K	1729800
318.41 K	1729400
318.6 K	1729300
318.79 K	1729200
318.98 K	1729000
319.17 K	1728800
319.36 K	1728600
319.55 K	1728600
319.74 K	1728300
319.93 K	1728200
320.12 K	1728000
320.31 K	1728000
320.5 K	1728000
320.68 K	1728000
320.87 K	1727900
321.06 K	1727600
321.25 K	1727500
321.44 K	1727400
321.63 K	1727200
321.82 K	1727200
322.01 K	1727300
322.2 K	1727200
322.39 K	1726900
322.58 K	1726600
322.76 K	1726900
322.95 K	1726900
323.14 K	1726800
323.33 K	1726700
323.52 K	1726500
323.71 K	1726800
323.9 K	1726900
324.09 K	1726700
324.28 K	1726700
324.47 K	1726600
324.66 K	1726600
324.85 K	1726700
325.04 K	1726500
325.23 K	1726500
325.41 K	1726500
325.6 K	1726500
325.79 K	1726500
325.98 K	1726300
326.17 K	1726400
326.36 K	1726600
326.55 K	1726500
326.74 K	1726700
326.93 K	1726700
327.12 K	1726400
327.31 K	1726600
327.5 K	1726500
327.69 K	1726700
327.87 K	1726500
328.06 K	1726500
328.25 K	1726700
328.44 K	1726900
328.63 K	1726600
328.82 K	1726700
329.01 K	1726800
329.2 K	1726900
329.39 K	1726800
329.58 K	1726700
329.77 K	1726700
329.95 K	1726800
330.14 K	1726900
330.33 K	1726900
330.52 K	1726800
330.71 K	1727000
330.9 K	1727000
331.09 K	1727200
331.28 K	1727300
331.47 K	1727100
331.66 K	1727200
331.85 K	1727200
332.04 K	1727200
332.23 K	1727200
332.42 K	1727100
332.61 K	1727100
332.79 K	1727400
332.98 K	1727300
333.17 K	1727400
333.36 K	1727300
333.55 K	1727600
333.74 K	1728000
333.93 K	1727700
334.12 K	1727800
334.31 K	1727700
334.5 K	1727900
334.69 K	1728100
334.88 K	1728200
335.06 K	1728100
335.25 K	1728100
335.44 K	1728300
335.63 K	1728300
335.82 K	1728600
336.01 K	1729000
336.2 K	1729000
336.39 K	1728800
336.58 K	1729000
336.77 K	1729100
336.96 K	1729000
337.15 K	1729000
337.34 K	1729200
337.52 K	1729100
337.71 K	1729200
337.9 K	1729200
338.09 K	1729300
338.28 K	1729700
338.47 K	1729900
338.66 K	1729900
338.85 K	1729600
339.04 K	1730200
339.23 K	1730200
339.42 K	1730600
339.61 K	1730700
339.8 K	1730900
339.99 K	1730600
340.17 K	1730800
340.36 K	1730700
340.55 K	1730900
340.74 K	1731100
340.93 K	1730900
341.12 K	1730900
341.31 K	1731200
341.5 K	1731200
